Data taken from patent publication US4055715A, “Method of producing 1-N-[L-(-)-α-hydroxy-γ-aminobutyryl]XK-62-2” (Abbott Laboratories, priority 1974, dated 1977).
Converted amounts (≈) assume the structure as drawn. Like-named read-outs stand apart in the source and are kept apart here.

Columns and labels:
[1] = tested on: Bacillus subtilis No. 10707; assay: Agar-dilution MIC, pH 8.0 (Table 1); assay type: cell-based
[2] = tested on: Proteus vulgaris ATCC 6897; assay: microbe, parasite or virus in culture; assay type: cell-based
Escherichia coli KY 8349 = assay: Agar dilution MIC, pH 7.2 (Table 2); assay type: cell-based; details: KY8349, E. coli KY 8349, produces neomycin-kanamycin phosphotransferase Type I, read-out: Minimum Inhibitory Concentration
[3] = tested on: Staphylococcus aureus ATCC 6538P; assay: Agar-dilution MIC, pH 8.0 (Table 1); assay type: cell-based; details: ATCC6538P
[4] = tested on: Staphylococcus aureus Smith; assay: Agar dilution MIC, pH 7.2 (Table 2); assay type: cell-based; details: pH 7.2, read-out: Minimum Inhibitory Concentration
[5] = tested on: Pseudomonas aeruginosa BMH 1; assay: Agar dilution MIC, pH 7.2 (Table 2); assay type: cell-based
[6] = tested on: Shigella sonnei ATCC 9290; assay: microbe, parasite or virus in culture; assay type: cell-based
Escherichia coli T-2 = assay: Agar dilution MIC, pH 7.2 (Table 2); assay type: cell-based
[7] = tested on: Pseudomonas aeruginosa KY 8511; assay: Agar dilution MIC, pH 7.2 (Table 2); assay type: cell-based
Proteus vulgaris 6897 = assay: Agar dilution MIC, pH 7.2 (Table 2); assay type: cell-based
Escherichia coli KY 8321 = assay: Agar dilution MIC, pH 7.2 (Table 2); assay type: cell-based
[8] = tested on: Bacillus subtilis ATCC 6633; assay: Agar dilution MIC, pH 7.2 (Table 2); assay type: cell-based
[9] = tested on: Salmonella typhosa ATCC 9992; assay: Agar-dilution MIC, pH 8.0 (Table 1); assay type: cell-based; details: Salmonella enterica, pH 8, read-out: Minimum Inhibitory Concentration
[10] = tested on: Pseudomonas aeruginosa KY 8512; assay: Agar dilution MIC, pH 7.2 (Table 2); assay type: cell-based
Proteus morganii KY 4298 = assay: Agar dilution MIC, pH 7.2 (Table 2); assay type: cell-based; details: Morganella morganii
Providencia sp. 164 = assay: Agar dilution MIC, pH 7.2 (Table 2); assay type: cell-based; details: Providencia sp. 164, produces gentamicin acetyltransferase Type II, read-out: Minimum Inhibitory Concentration
Escherichia coli KY 8327 [11] = assay: Agar dilution MIC, pH 7.2 (Table 2); assay type: cell-based; details: KY8327, E. coli KY 8327, read-out: Minimum Inhibitory Concentration
[12] = tested on: Krebsiella pneumoniae ATCC 10031; assay: Agar-dilution MIC, pH 8.0 (Table 1); assay type: cell-based; details: Klebsiella pneumoniae
[13] = tested on: Staphylococcus aureus 209 P; assay: Agar dilution MIC, pH 7.2 (Table 2); assay type: cell-based; details: pH 7.2, read-out: Minimum Inhibitory Concentration
[14] = tested on: Pseudomonas aeruginosa BMH 1; assay: Agar-dilution MIC, pH 8.0 (Table 1); assay type: cell-based
Proteus mirabilis 1287 = assay: Agar dilution MIC, pH 7.2 (Table 2); assay type: cell-based
Escherichia coli T-5 = assay: Agar dilution MIC, pH 7.2 (Table 2); assay type: cell-based
Escherichia coli KY 8348 [15] = assay: Agar-dilution MIC, pH 8.0 (Table 1); assay type: cell-based; details: Escherichia coli, KY8348; E. coli KY 8348, produces gentamicin acetyltransferase Type I; agar-dilution, pH 8.0; read-out: Minimum Inhibitory Concentration
Source text: (§1) The former bacterium inactivates kanamycins and gentamicins by adenylation, and the latter inactivates gentamicins by acetylation.

Escherichia coli KY 8327 [16] = assay: Agar-dilution MIC, pH 8.0 (Table 1); assay type: cell-based; details: Escherichia coli, KY8327; E. coli KY 8327, produces gentamicin adenyltransferase; agar-dilution, pH 8.0; read-out: Minimum Inhibitory Concentration
Source text: as §1

[17] = tested on: Klebsiella pneumoniae No. 8045; assay: Agar dilution MIC, pH 7.2 (Table 2); assay type: cell-based
[18] = tested on: Pseudomonas aeruginosa KY 8516; assay: Agar dilution MIC, pH 7.2 (Table 2); assay type: cell-based
Escherichia coli ATCC 26 = assay: Agar-dilution MIC, pH 8.0 (Table 1); assay type: cell-based
[19] = tested on: Pseudomonas aeruginosa KY 8510; assay: Agar dilution MIC, pH 7.2 (Table 2); assay type: cell-based
Sarcina lutea ATCC 9341 = assay: Agar dilution MIC, pH 7.2 (Table 2); assay type: cell-based; details: Micrococcus luteus
[20] = Acute toxicity in mice, intravenous injection; details: mouse, in vivo
Escherichia coli KY 8348 [21] = assay: Agar dilution MIC, pH 7.2 (Table 2); assay type: cell-based; details: KY8348, E. coli KY 8348, produces gentamicin acetyltransferase Type I, read-out: Minimum Inhibitory Concentration
Proteus rettgeri KY 4288 = assay: Agar dilution MIC, pH 7.2 (Table 2); assay type: cell-based; details: Providencia rettgeri, KY4288, P. rettgeri KY 4288, read-out: Minimum Inhibitory Concentration

## NC[C@H]1O[C@H](O[C@H]2[C@H](O)[C@@H](O[C@H]3O[C@H](CO)[C@@H](O)[C@H](N)[C@H]3O)[C@H](N)C[C@@H]2N)[C@H](O)[C@@H](O)[C@@H]1O [Kanamycin A, kanamycin A]
[1]; NO.10707, pH 8, read-out: Minimum Inhibitory Concentration
  MIC: 0.021 µg/mL (≈ 0.0433 µM)
[2]; ATCC6897, pH 8, read-out: Minimum Inhibitory Concentration
  MIC: 0.16 µg/mL (≈ 0.33 µM)
Escherichia coli KY 8349
  MIC: > 100 µg/mL
[3]; pH 8, read-out: Minimum Inhibitory Concentration
  MIC: 0.021 µg/mL (≈ 0.0433 µM)
[4]
  MIC: 0.2 µg/mL (≈ 0.413 µM)
[5]; BMH1, pH 7.2, read-out: Minimum Inhibitory Concentration
  MIC: 12.5 µg/mL (≈ 25.8 µM)
[6]; ATCC9290, pH 8, read-out: Minimum Inhibitory Concentration
  MIC: 0.16 µg/mL (≈ 0.33 µM)
Escherichia coli T-2; T2, pH 7.2, read-out: Minimum Inhibitory Concentration
  MIC: 1.56 µg/mL (≈ 3.22 µM)
[7]; KY8511, pH 7.2, read-out: Minimum Inhibitory Concentration
  MIC: 100 µg/mL (≈ 206 µM)
Proteus vulgaris 6897; Proteus vulgaris, 6897, pH 7.2, read-out: Minimum Inhibitory Concentration
  MIC: 3.12 µg/mL (≈ 6.44 µM)
Escherichia coli KY 8321; KY8321, pH 7.2, read-out: Minimum Inhibitory Concentration
  MIC: 100 µg/mL (≈ 206 µM)
[8]; ATCC6633, pH 7.2, read-out: Minimum Inhibitory Concentration
  MIC: 0.2 µg/mL (≈ 0.413 µM)
[9]
  MIC: 0.088 µg/mL (≈ 0.182 µM)
[10]; KY8512, pH 7.2, read-out: Minimum Inhibitory Concentration
  MIC: 12.5 µg/mL (≈ 25.8 µM)
Proteus morganii KY 4298; KY4298, pH 7.2, read-out: Minimum Inhibitory Concentration
  MIC: 1.56 µg/mL (≈ 3.22 µM)
Providencia sp. 164
  MIC: > 100 µg/mL
Escherichia coli KY 8327 [11]
  MIC: 50 µg/mL (≈ 103 µM)
[12]; ATCC10031, pH 8, read-out: Minimum Inhibitory Concentration
  MIC: 0.042 µg/mL (≈ 0.0867 µM)
[13]; 209P
  MIC: 0.2 µg/mL (≈ 0.413 µM)
[14]; BMH1, pH 8, read-out: Minimum Inhibitory Concentration
  MIC: 5.2 µg/mL (≈ 10.7 µM)
Proteus mirabilis 1287; Proteus mirabilis, 1287, pH 7.2, read-out: Minimum Inhibitory Concentration
  MIC: 6.25 µg/mL (≈ 12.9 µM)
Escherichia coli T-5; T5, pH 7.2, read-out: Minimum Inhibitory Concentration
  MIC: 1.56 µg/mL (≈ 3.22 µM)
Escherichia coli KY 8348 [15]
  MIC: 0.041 µg/mL (≈ 0.0846 µM)
Escherichia coli KY 8327 [16]
  MIC: 1.04 µg/mL (≈ 2.15 µM)
[17]; NO.8045, pH 7.2, read-out: Minimum Inhibitory Concentration
  MIC: 0.4 µg/mL (≈ 0.826 µM)
[18]; KY8516, pH 7.2, read-out: Minimum Inhibitory Concentration
  MIC: > 100 µg/mL
Escherichia coli ATCC 26; ATCC26, pH 8, read-out: Minimum Inhibitory Concentration
  MIC: 0.16 µg/mL (≈ 0.33 µM)
[19]; KY8510, pH 7.2, read-out: Minimum Inhibitory Concentration
  MIC: 100 µg/mL (≈ 206 µM)
Sarcina lutea ATCC 9341; ATCC9341, pH 7.2, read-out: Minimum Inhibitory Concentration
  MIC: 6.25 µg/mL (≈ 12.9 µM)

## CNC[C@@H]1CC[C@@H](N)[C@@H](O[C@H]2[C@H](O)[C@@H](O[C@H]3OC[C@](C)(O)[C@H](NC)[C@H]3O)[C@H](N)C[C@@H]2N)O1 [XK-62-2]
[1]; B. subtilis No. 10707, agar-dilution, pH 8.0, read-out: Minimum Inhibitory Concentration
  MIC: 0.044 µg/mL (≈ 0.0949 µM)
[2]; ATCC6897, P. vulgaris ATCC 6897, agar-dilution, pH 8.0, read-out: Minimum Inhibitory Concentration
  MIC: 0.033 µg/mL (≈ 0.0712 µM)
Escherichia coli KY 8349
  MIC: 0.4 µg/mL (≈ 0.863 µM)
[3]; S. aureus ATCC 6538P, agar-dilution, pH 8.0, read-out: Minimum Inhibitory Concentration
  MIC: 0.088 µg/mL (≈ 0.19 µM)
[4]; S. aureus Smith, agar dilution
  MIC: < 0.05 µg/mL
[5]; BMH1, P. aeruginosa BMH 1, agar dilution, pH 7.2, read-out: Minimum Inhibitory Concentration
  MIC: 0.78 µg/mL (≈ 1.68 µM)
[6]; ATCC9290, S. sonnei ATCC 9290, agar-dilution, pH 8.0, read-out: Minimum Inhibitory Concentration
  MIC: 0.033 µg/mL (≈ 0.0712 µM)
Escherichia coli T-2; T2, E. coli T-2, agar dilution, pH 7.2, read-out: Minimum Inhibitory Concentration
  MIC: 0.4 µg/mL (≈ 0.863 µM)
[7]; KY8511, P. aeruginosa KY 8511, produces gentamicin acetyltransferase Type I and neomycin-kanamycin phosphotransferase Type I, agar dilution, pH 7.2, read-out: Minimum Inhibitory Concentration
  MIC: 100 µg/mL (≈ 216 µM)
Proteus vulgaris 6897; Proteus vulgaris, P. vulgaris 6897, agar dilution, pH 7.2, read-out: Minimum Inhibitory Concentration
  MIC: 0.78 µg/mL (≈ 1.68 µM)
Escherichia coli KY 8321; KY8321, E. coli KY 8321, produces gentamicin adenyltransferase and neomycin-kanamycin phosphotransferase Type II, agar dilution, pH 7.2, read-out: Minimum Inhibitory Concentration
  MIC: 3.12 µg/mL (≈ 6.73 µM)
[8]; ATCC6633, B. subtilis ATCC 6633, agar dilution, pH 7.2, read-out: Minimum Inhibitory Concentration
  MIC: < 0.05 µg/mL
[9]
  MIC: 0.008 µg/mL (≈ 0.0173 µM)
[10]; KY8512, P. aeruginosa KY 8512, produces neomycin-kanamycin phosphotransferase Type I and II and streptomycin phosphotransferase, agar dilution, pH 7.2, read-out: Minimum Inhibitory Concentration
  MIC: 0.78 µg/mL (≈ 1.68 µM)
Proteus morganii KY 4298; KY4298, P. morganii KY 4298, agar dilution, pH 7.2, read-out: Minimum Inhibitory Concentration
  MIC: 0.4 µg/mL (≈ 0.863 µM)
Providencia sp. 164
  MIC: 100 µg/mL (≈ 216 µM)
Escherichia coli KY 8327 [11]
  MIC: 12.5 µg/mL (≈ 27 µM)
[12]; ATCC10031, K. pneumoniae ATCC 10031, agar-dilution, pH 8.0, read-out: Minimum Inhibitory Concentration
  MIC: 0.004 µg/mL (≈ 0.00863 µM)
[13]; S. aureus 209 P, agar dilution
  MIC: 0.1 µg/mL (≈ 0.216 µM)
[14]; BMH1, P. aeruginosa BMH 1, agar-dilution, pH 8.0, read-out: Minimum Inhibitory Concentration
  MIC: 0.52 µg/mL (≈ 1.12 µM)
[20]
  LD50: 93 mg/kg
Escherichia coli KY 8348 [21]
  MIC: 12.5 µg/mL (≈ 27 µM)
Proteus mirabilis 1287; Proteus mirabilis, P. mirabilis 1287, agar dilution, pH 7.2, read-out: Minimum Inhibitory Concentration
  MIC: 0.78 µg/mL (≈ 1.68 µM)
Escherichia coli T-5; T5, E. coli T-5, agar dilution, pH 7.2, read-out: Minimum Inhibitory Concentration
  MIC: 0.4 µg/mL (≈ 0.863 µM)
Escherichia coli KY 8348 [15]
  MIC: 1.04 µg/mL (≈ 2.24 µM)
Escherichia coli KY 8327 [16]
  MIC: 1.04 µg/mL (≈ 2.24 µM)
[17]; K. pneumoniae No. 8045, agar dilution, pH 7.2, read-out: Minimum Inhibitory Concentration
  MIC: 0.1 µg/mL (≈ 0.216 µM)
[18]; KY8516, P. aeruginosa KY 8516, probably produces kanamycin acetyltransferase, agar dilution, pH 7.2, read-out: Minimum Inhibitory Concentration
  MIC: 3.12 µg/mL (≈ 6.73 µM)
Proteus rettgeri KY 4288
  MIC: 0.4 µg/mL (≈ 0.863 µM)
Escherichia coli ATCC 26; ATCC26, E. coli ATCC 26, agar-dilution, pH 8.0, read-out: Minimum Inhibitory Concentration
  MIC: 0.016 µg/mL (≈ 0.0345 µM)
[19]; KY8510, P. aeruginosa KY 8510, produces kanamycin acetyltransferase, agar dilution, pH 7.2, read-out: Minimum Inhibitory Concentration
  MIC: 1.56 µg/mL (≈ 3.37 µM)
Sarcina lutea ATCC 9341; ATCC9341, Sarcina lutea ATCC 9341, agar dilution, pH 7.2, read-out: Minimum Inhibitory Concentration
  MIC: 0.4 µg/mL (≈ 0.863 µM)
